Data: patent US20240109917A1 (ACTELION PHARMACEUTICALS LTD, priority 2020, published 2024)

Target: His6-TEV-PDGFRβ (557-1016) (Homo sapiens (Human), UniProt P09619)
Assay: PDGFRβ HTRF Assay
Assay type: biochemical
Conditions: read-out: PDGFR HTRF IC50
Method in brief: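 Human PDGFRβ (557-1016) pre-incubated with compound for 30 min at RT in pH 7.5 HEPES/MgCl2/EGTA/Brij-35/DTT buffer. Reaction started with ATP and TK-biotin peptide, run 3 h at RT, then quenched with EDTA-containing Eu-cryptate antibody/streptavidin-XL665. HTRF 665/620 nm ratio read after 60 min; percent inhibition relative to DMSO and 10 μM imatinib controls.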

Sequence of His6-TEV-PDGFRβ (557-1016) (P09619 557-1016): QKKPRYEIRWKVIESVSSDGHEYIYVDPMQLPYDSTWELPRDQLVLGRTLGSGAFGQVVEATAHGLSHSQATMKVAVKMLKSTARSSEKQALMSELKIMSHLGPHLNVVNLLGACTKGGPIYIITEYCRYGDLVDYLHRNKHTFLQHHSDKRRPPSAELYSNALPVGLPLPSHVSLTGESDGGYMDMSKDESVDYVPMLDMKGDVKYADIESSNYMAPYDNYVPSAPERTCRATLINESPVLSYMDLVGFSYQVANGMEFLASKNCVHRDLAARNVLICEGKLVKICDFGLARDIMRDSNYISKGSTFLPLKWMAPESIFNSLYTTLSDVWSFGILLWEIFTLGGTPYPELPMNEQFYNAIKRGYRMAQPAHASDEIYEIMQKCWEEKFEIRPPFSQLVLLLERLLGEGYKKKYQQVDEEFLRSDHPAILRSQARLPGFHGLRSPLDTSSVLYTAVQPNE

| Structure (SMILES) | IC50 [nM] |
| --- | --- |
| Cc1ncc(C(=O)NCCN2CC(C)(C)C2)cc1NC(=O)c1cnn2cc(-c3cnn(C)c3)sc12 [Example 126, N-(5-((2-(3,3-dimethylazetidin-1-yl)ethyl)carbamoyl)-2-methylpyridin-3-yl)-2-(1-methyl-1H-pyrazol-4-yl)pyrazolo[5,1-b]thiazole-7-carboxamide] | 0.3 |
| Cc1ncc(C(=O)NCCN2CCC3(CC3)C2)cc1NC(=O)c1cnn2cc(-c3cccnc3)sc12 [Example 159, N-(5-((2-(5-azaspiro[2.4]heptan-5-yl)ethyl)carbamoyl)-2-methylpyridin-3-yl)-2-(pyridin-3-yl)pyrazolo[5,1-b]thiazole-7-carboxamide] | 0.7 |
| Cc1ncc(NC(=O)CCN2CCCC23CC3)cc1NC(=O)c1cnn2cc(-c3cnn(C)c3)sc12 [Example 98] | 0.3 |
| Cc1ncc(NC(=O)CCN2CC(C)(C)C2)cc1NC(=O)c1cnn2cc(-c3cnn(C)c3)sc12 [Example 96, N-(5-(3-(3,3-dimethylazetidin-1-yl)propanamido)-2-methylpyridin-3-yl)-2-(1-methyl-1H-pyrazol-4-yl)pyrazolo[5,1-b]thiazole-7-carboxamide] | 0.6 |
| Cc1ncc(NC(=O)NCCC2CCN(C)CC2)cc1NC(=O)c1cnn2cc(-c3cnn(C)c3)sc12 [Example 108, 2-(1-methyl-1H-pyrazol-4-yl)-N-(2-methyl-5-(3-(2-(1-methylpiperidin-4-yl)ethyl)ureido)pyridin-3-yl)pyrazolo[5,1-b]thiazole-7-carboxamide] | 10.7 |
